Columns and labels:
Assay in all cases: Test E greenhouse herbicide test, pre- and postemergence
Format in all cases: in vivo
[1] = system: pigweed, palmer (palmer pigweed, Amaranthus palmeri)
In short: (§1)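 Seedlings reaching 2–18 cm (1- to 4-leaf stage) received foliar treatment, while seeds in silt loam received a soil surface spray; the vehicle in each case was a non-phytotoxic solvent mixture including surfactant. Visual scoring versus controls followed 14–21 d later on a 0–100 scale.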

[2] = system: panicum, fall (fall panicum, Panicum dichotomiflorum)
In short: as §1

[3] = system: surinam grass (Brachiaria decumbens); settings: Preemergence
In short: as §1

[4] = system: barnyardgrass (Echinochloa crus-galli)
In short: as §1

[5] = system: momingglory (Ipomoea coccinea); settings: Preemergence
In short: as §1

[6] = system: nightshade (eastern black nightshade, Solanum ptycanthum); settings: Preemergence
In short: as §1

[7] = system: foxtail, giant (giant foxtail, Setaria faberii); settings: Preemergence
In short: as §1

[8] = system: crabgrass, Brazilian (Brazilian crabgrass, Digitaria horizontalis)
In short: as §1

soybean (Glycine max) = system: soybean (Glycine max)
In short: as §1

[9] = system: ragweed (common ragweed, Ambrosia elatior)
In short: as §1

[10] = system: crabgrass, large (large crabgrass, Digitaria sanguinalis); settings: Preemergence
In short: as §1

[11] = system: horseweed (Conyza canadensis); settings: Postemergence
In short: as §1

[12] = system: johnsongrass (Sorghum halepense); settings: Preemergence
In short: as §1

[13] = system: arrowleaf sida (Sida rhombifolia)
In short: as §1

[14] = system: goosegrass (Eleusine indica); settings: Preemergence
In short: as §1

[15] = system: field bindweed (Convolvulus arvensis)
In short: as §1

[16] = 62 g ai/ha, Postemergence, scale 0 to 100 (0 no effect, 100 complete control)
[17] = 62 g ai/ha, Preemergence, scale 0 to 100 (0 no effect, 100 complete control)
[18] = 125 g ai/ha, Postemergence, scale 0 to 100 (0 no effect, 100 complete control)
[19] = 125 g ai/ha, Preemergence, scale 0 to 100 (0 no effect, 100 complete control)
[20] = Postemergence, 16 g ai/ha, visual, scale 0 no effect to 100 complete control
[21] = Postemergence, 31 g ai/ha, visual, scale 0 no effect to 100 complete control
[22] = Preemergence, 16 g ai/ha, scale 0 to 100, 0 no effect, 100 complete control
[23] = Preemergence, 31 g ai/ha, scale 0 to 100, 0 no effect, 100 complete control
[24] = 62 g ai/ha, scale 0 to 100 (0 no effect, 100 complete control)
[25] = 125 g ai/ha, scale 0 to 100 (0 no effect, 100 complete control)
[26] = 16 g ai/ha, scale 0 to 100, 0 no effect, 100 complete control
[27] = 31 g ai/ha, scale 0 to 100, 0 no effect, 100 complete control

Cc1ccc2sc(C)c(-c3c(OC(=O)OC(C)C)c(C)nn(C)c3=O)c2c1 [Compound 66]
30: Plant response rating, Panicum, Fall [2, 20] | Plant response rating, Morningglory [5, 24] | Plant response rating, Crabgrass, Brazil [8, 16] | Plant response rating, Arrowleaf Sida [13, 20]
10: Plant response rating, Panicum, Fall [2, 22] | Plant response rating, Crabgrass, Brazil [8, 20] | Plant response rating, Goosegrass [14, 24] | Plant response rating, Goosegrass [14, 25]
65: Plant response rating, Pigweed, Palmer [1, 17] | Plant response rating, Crabgrass, Brazil [8, 19] | Plant response rating, Ragweed [9, 23] | Plant response rating, Arrowleaf Sida [13, 19]
5: Plant response rating, Surinam Grass [3, 24] | Plant response rating, Surinam Grass [3, 26] | Plant response rating, Foxtail, Giant [7, 27] | Plant response rating, Goosegrass [14, 26] | Plant response rating, Goosegrass [14, 27] | Plant response rating, Field Bindweed [15, 23]
50: Plant response rating, Pigweed, Palmer [1, 20] | Plant response rating, Surinam Grass [3, 25] | Plant response rating, Field Bindweed [15, 17]
98: Plant response rating, Panicum, Fall [2, 19]
15: Plant response rating, Barnyardgrass [4, 19] | Plant response rating, Barnyardgrass [4, 21] | Plant response rating, Barnyardgrass [4, 23] | Plant response rating, Nightshade [6, 24] | Plant response rating, Crabgrass, Large [10, 25]
40: Plant response rating, Morningglory [5, 25] | Plant response rating, Foxtail, Giant [7, 24] | Plant response rating, Crabgrass, Brazil [8, 18] | Plant response rating, Arrowleaf Sida [13, 17] | Plant response rating, Arrowleaf Sida [13, 21] | Plant response rating, Field Bindweed [15, 19]
60: Plant response rating, Pigweed, Palmer [1, 16] | Plant response rating, Panicum, Fall [2, 23] | Plant response rating, Horseweed ([11]; 16 g ai/ha, visual, scale 0 no effect to 100 complete control) | Plant response rating, Arrowleaf Sida [13, 16] | Plant response rating, Field Bindweed [15, 21]
25: Plant response rating, Barnyardgrass [4, 16] | Plant response rating, Crabgrass, Brazil [8, 17] | Plant response rating, Crabgrass, Brazil [8, 23] | Plant response rating, Ragweed [9, 22]
100: Plant response rating, Pigweed, Palmer [1, 19] | Plant response rating, Nightshade [6, 25] | Plant response rating, Ragweed [9, 19]
20: Plant response rating, Surinam Grass [3, 27] | Plant response rating, Barnyardgrass [4, 17] | Plant response rating, Barnyardgrass [4, 18] | Plant response rating, Barnyardgrass [4, 20] | Plant response rating, Crabgrass, Brazil [8, 21] | Plant response rating, Soybean (soybean (Glycine max); [16]) | Plant response rating, Soybean (soybean (Glycine max); [18])
70: Plant response rating, Pigweed, Palmer [1, 21] | Plant response rating, Panicum, Fall [2, 16] | Plant response rating, Panicum, Fall [2, 21] | Plant response rating, Arrowleaf Sida [13, 18] | Plant response rating, Field Bindweed [15, 20]
90: Plant response rating, Foxtail, Giant [7, 25] | Plant response rating, Ragweed [9, 17] | Plant response rating, Ragweed [9, 18] | Plant response rating, Horseweed [11, 24] | Plant response rating, Horseweed [11, 25]
95: Plant response rating, Panicum, Fall [2, 17]
75: Plant response rating, Ragweed [9, 20]
0: Plant response rating, Pigweed, Palmer [1, 22] | Plant response rating, Pigweed, Palmer [1, 23] | Plant response rating, Barnyardgrass [4, 22] | Plant response rating, Morningglory [5, 26] | Plant response rating, Morningglory [5, 27] | Plant response rating, Nightshade [6, 26] | Plant response rating, Nightshade [6, 27] | Plant response rating, Foxtail, Giant [7, 26] | Plant response rating, Crabgrass, Brazil [8, 22] | Plant response rating, Soybean (soybean (Glycine max); [17]) | Plant response rating, Soybean (soybean (Glycine max); [19]) | Plant response rating, Soybean (soybean (Glycine max); [20]) | Plant response rating, Soybean (soybean (Glycine max); [21]) | Plant response rating, Soybean (soybean (Glycine max); [22]) | Plant response rating, Soybean (soybean (Glycine max); [23]) | Plant response rating, Crabgrass, Large [10, 24] | Plant response rating, Crabgrass, Large [10, 26] | Plant response rating, Crabgrass, Large [10, 27] | Plant response rating, Johnsongrass [12, 24] | Plant response rating, Johnsongrass [12, 25] | Plant response rating, Johnsongrass [12, 26] | Plant response rating, Johnsongrass [12, 27] | Plant response rating, Arrowleaf Sida [13, 22] | Plant response rating, Arrowleaf Sida [13, 23] | Plant response rating, Field Bindweed [15, 22]
80: Plant response rating, Pigweed, Palmer [1, 18] | Plant response rating, Panicum, Fall [2, 18] | Plant response rating, Ragweed [9, 16] | Plant response rating, Ragweed [9, 21] | Plant response rating, Horseweed ([11]; 31 g ai/ha, visual, scale 0 no effect to 100 complete control) | Plant response rating, Field Bindweed [15, 16] | Plant response rating, Field Bindweed [15, 18]

From US10597388B2, “Pyridazinone herbicides” (FMC CORPORATION, priority 2014, dated 2020)
